From patent publication US20080188449A1, “Treatment of Conditions Caused By Calcium Abnormalities” (priority 2004, published 2008)

Assays:
[1] = system: HeLa cells; test: HeLa cell viability by trypan blue dye exclusion; assay type: cell-based
Description: Since extracellular calcium concentration can influence triptolide binding Applicants sought to determine if the presence of calcium influences the rate of triptolide-mediated apoptosis. To first establish the growth rate of HeLa in media±calcium, cell counts were performed over a 72 hour time course. Although calcium-free media caused cells to detach more easily, the overall growth rates were similar where cell doubling occurred every 24 hours on average (FIG. 3B). For triptolide experiments, cells were initially equilibrated in medium±calcium for 16 hours before the addition of 100 nM triptolide. Cell death was assessed by trypan blue dye exclusion at 24, 48, and 72 hours post drug treatment. In the presence of calcium-containing medium, triptolide induced at least 50% cell death by 24 hours with this trend continuing through later time points (FIG. 3C).
Applicants' results have implicated reversible binding of triptolide to a potential binding protein or complex that can be regulated by calcium. To understand if triptolide function is further separable between cell death and NFκB inhibition, Applicants examined the effect of concentration on these two endpoints. HeLa cells were cultured in the presence of 0, 10, 25, 50, or 100 nM of triptolide and separately assessed for cell death or the ability to suppress NFκB transactivation promoted by TNF-α. Following 24-48 hours of culture, viable cells were recovered and counted. Following 24 hours, triptolide concentrations from 25-100 nM caused greater than 50% of the cells to undergo cell death as assessed by detachment, clumping and the failure to exclude trypan blue dye. […] This is consistent with previous studies showing that low doses of triptolide cause cell cycle arrest rather than apoptosis (Kiviharju, et al., 2002, Clin Cancer Res 8, 2666-2674).
Based upon Applicants' studies examining the concentration dependent effect of triptolide on the two measured biological endpoints, cell death and transcriptional repression, Applicants wanted to determine how modulating triptolide's structure may also discriminate between the two pathways. For cell viability assays, HeLa cells were incubated with 0, 0.1, 1, or 10 μM of each analog or triptolide for 24 hours and then counted using trypan blue dye exclusion. […] NFκB transcriptional inhibition was measured using the κB-luciferase assay as previously described following 5 hours of incubation with each analog (0-10 μM) and TNF-α addition.
HeLa cells were incubated in DMEM or SMEM (Gibco) media+10% FBS and maintained at 37° C. in 5% CO2 for all experiments. HeLa cell viability was assessed by trypan blue dye exclusion, as well as by morphological examination (non-viable cells were rounded and detached from culture plate).

[2] = system: adult animal; test: Tolerability in adult animal; assay type: in vivo
Excerpt: Since ADPKD has no proven therapeutic cure or treatment, Applicants believe it is encouraging as a preliminary step to observe triptolide-mediated growth arrest and attenuation of cyst progression. […] In summary, Applicants have established a novel pathway for triptolide mediated calcium release in a polycystin-2 dependent pathway that can reduce cystic burden in the kidneys of PKD mice. It is hopeful therefore that if fully developed, triptolide would be an ideal candidate for drug therapy as its history as an herbal therapy has already shown it to be well tolerated in humans.

[3] = system: Pkd1^−/− murine kidney epithelial cells; test: Growth, p21 and active caspase-3 in Pkd1^−/− cells; assay type: cell-based
Description: Calcium response to triptolide was, thus, shown to be dependent on polycystin-2. The biological response to calcium flux was next assessed in the murine Pkd1^−/− cell line, by adding 100 nM triptolide to the cultured cells and observing cell growth over time. Within the first 24 hours of culture, a minimal number of detached cells was observed. […] In the absence of triptolide, this cell line underwent a population doubling every 48 hours. […] It is possible that additional signaling pathways are activated by triptolide when Pkd1 is expressed. […] Therefore, Applicants assessed whether the inhibition of proliferation observed was due to p21 re-expression upon triptolide treatment.
The Pkd1^−/−(MN24), Pkd2^+/−(3B3) and Pkd2^−/−(2D2) murine cell lines were derived from knockout and transgenic mice as previously reported (Wu, et al., 1998, Cell, 93:177-88; Wu, et al., 2000, Nat. Genet, 24:75-8; Wu, et al., 2002, Hum Mol Genet, 11:1845-54). The PKD2-Rex cell line was made by stable integration of untagged PKD2 under hygromycin selection. Antibodies used included polycystin-2 (Cai, et al. 1999, J Biol Chem, 274:28557-65), cleaved (active) caspase-3 (Cell Signaling Technology) and p21 (BD Biosciences). Triptolide was obtained from Sinobest Inc. (China) and purity was 99% as determined by HPLC. DMSO was used to dissolve triptolide and was then directly added into culture media for all experiments. Triptolide was tritiated by Sib Tech, Inc. (Newington, Conn.) and resuspended in ethanol to a specific activity of 4-6 Ci/mmol. Purity was >95% as confirmed by RP-HPLC on a Hypersil C18 column and by TLC on both C18 and silica gel.
Total cell lysates (0.5% Triton X-100, 50 mM Tris pH 7.4, 150 mM NaCl, […]) were prepared for Western blot analysis and samples were run out by SDS-PAGE as per manufacturers' protocols. Brightfield images of cells were taken using a 10× or 40× objective. Confocal microscopy (40×) was used for immunofluorescence imaging of polycystin-2.

SMILES: CC(C)[C@]12O[C@H]1[C@@H]1O[C@]13[C@]1(O[C@H]1C[C@H]1C4=C(CC[C@@]13C)C(=O)OC4)[C@@H]2O [triptolide, Triptolide]
- cell growth ([1]; 10 nM): efficient at arresting cell growth
- cell death ([1]; 0.1 μM, 24 hours, analog study): 60%
- cell death ([1]; 0.1 μM, 24 hours, analog study, listed as Triptolide): greater than 50%
- cell death ([1]; 100 nM, calcium-containing medium, by 24 hours): at least 50%
- cell death at the higher concentrations ([1]; 1 or 10 μM versus 0.1 μM, 24 hours): no significant increase
- cell death ([1]; 25-100 nM, 24 hours): greater than 50%
- cell death ([1]; 25-100 nM, 48 hours): nearly all cells treated within this concentration range of triptolide died
- minimal incubation time required for commitment to apoptosis ([1]; HeLa cells): three to four
- dose that did not adversely affect health [2]: greater than 0.15 mg/kg/day
- active caspase-3 (western blot) ([3]; 100 nM time course): failed to implicate triptolide induced apoptosis
- p21 expression (western blot) ([3]; 100 nM, 96 hour time course): upregulated
- cell growth ([3]; 100 nM, over 96 hours): growth arrested
